Measured values: patent US4193996A, “Spiro-quinolone hydantoins” (Pfizer Inc., priority 1979, dated 1980)

Experiments:
[1] = tested on: sorbitol accumulation in the sciatic nerve; experiment: Inhibition of sorbitol accumulation in the sciatic nerve of streptozotocinized (diabetic) rats; assay type: in vivo, rat; conditions: oral, at 4, 8 and 24 hours after streptozotocin, measured 27 hours after induction of diabetes
Experimental: The compounds of Examples 3 and 4 were tested for their ability to reduce or inhibit sorbitol accumulation in the sciatic nerve of streptozotocinized (i.e. diabetic) rats by the procedure essentially described in U.S. Pat. No. 3,821,383. In the present study, the amount of sorbitol accumulation in the sciatic nerves was measured 27 hours after induction of diabetes. The compounds were administered orally at the dose levels indicated at 4, 8 and 24 hours following the administration of streptozotocin. The results obtained in this manner are presented below in terms of percent inhibition (%) afforded by the test compound as compared to the case where no compound was administered (i.e. the untreated animal, where sorbitol levels normally rise from approximately […]. tissue in the 27-hour test period): […]

aldose reductase = experiment: Inhibition of aldose reductase enzyme activity (partially purified enzyme from calf lens); assay type: biochemical
Experimental: The compounds of Examples 3 and 4 were tested for their ability to reduce or inhibit aldose reductase enzyme activity, following the procedure described in U.S. Pat. No. 3,821,383 and based on the procedure of Hayman et. al., Journal of Biological Chemistry, 240, 877 (1965). The substrate employed was partially purified aldose reductase enzyme obtained from calf lens.

SMILES | % Inhibition at 1.5 mg/kg (sorbitol accumulation in the sciatic nerve vs untreated) [1] [%] | % Inhibition at 10^-6 m (inhibition of aldose reductase enzyme activity) (aldose reductase) [%]
O=C1NC(=O)C2(CCn3c(=O)ccc4cccc2c43)N1 (stereo not shown) [Example 3, Spiro[2,3-dihydro-1H, 5H-benzo[ij]quinolizin [1,4']imidazolidin]-2', 5, 4'-trione] | 27 | 86
O=C1NC(=O)C2(CCn3c(=O)ccc4cc(Cl)cc2c43)N1 (stereo not shown) [Example 4, 10-Chloro-spiro[2,3-dihydro-1H, 5H-benzo[ij]quinolizin[1,4']imidazolidin]-2', 5, 5'-trione] | 32 | 94
